From ChEMBL document CHEMBL1148592, “Synthesis and antiviral evaluation of cyclic and acyclic 2-methyl-3-hydroxy-4-pyridinone nucleoside derivatives” (J Med Chem, 2006) come the findings set out here.

In data set [1] the test system is Human alphaherpesvirus 1. Nature of the data set: Antiviral activity against HSV1 TK- in HEL cells. Format: functional, organism-based. As to conditions: Human alphaherpesvirus 1, TK-.
The nature of data set [2]: Minimum toxic concentration in HEL cells. Format: toxicity, cell-based. As to conditions: human, read-out: MTC.
The subject of data set [3] is Human immunodeficiency virus 2. Nature of the data set: Antiviral activity against HIV2 ROD in CEM cells. Format: functional, organism-based. As to conditions: Human immunodeficiency virus 2, ROD, CCRF-CEM.
The subject of another data set is Human alphaherpesvirus 2. Nature of the data set: Antiviral activity against HSV2 G in HEL cells. Format: functional, organism-based. As to conditions: Human alphaherpesvirus 2, G.
A further data set concerns CCRF-CEM. Nature of the data set: Cytotoxicity in CEM cells. Format: functional. As to conditions: Homo sapiens.
Data set [4] concerns Human alphaherpesvirus 1. Nature of the data set: Antiviral activity against HSV1 KOS in HEL cells. As to conditions: Human alphaherpesvirus 1, KOS. Format: functional, organism-based.
In data set [5] the test system is Human immunodeficiency virus 1. Nature of the data set: Antiviral activity against HIV1 IIIB in CEM cells. Format: functional, organism-based. As to conditions: Human immunodeficiency virus 1, 3B, CCRF-CEM.

For the compound `Cc1c(O)c(=O)ccn1[C@H]1CC[C@@H](CO)O1`, the EC50 was 500 µM with Human alphaherpesvirus 1 [1]; over 50 µM in data set [3]; over 900 µM in the data set on Human alphaherpesvirus 2; 40 µM with Human alphaherpesvirus 1 [4]; over 50 µM in data set [5]. Also, the MCC in data set [2] was over 900 µM. In the data set on CCRF-CEM, this compound returned a CC50 of over 50 µM.
On to `Cc1c(O)c(=O)ccn1[C@H]1CC[C@H](CO)O1`, for which the EC50 in the data set on Human alphaherpesvirus 1 [1] is over 177 µM; in data set [3], over 90 µM; with Human alphaherpesvirus 2 it was over 177 µM; with Human alphaherpesvirus 1 [4] it was 177 µM; in data set [5], over 90 µM. Also, in data set [2], the MCC was over 900 µM. In the data set on CCRF-CEM, this compound gave a CC50 of 84 µM.
For the compound `Cc1c(O)c(=O)ccn1CCOCP(=O)(O)O`, the MCC in data set [2] was over 200 µM. Moreover, the EC50 in data set [3] is over 50 µM; with Human alphaherpesvirus 2, over 200 µM; in the data set on Human alphaherpesvirus 1 [4], over 200 µM; in data set [5] it was over 50 µM. Moreover, the CC50 with CCRF-CEM is over 50 µM.
As for `Cc1c(O)c(=O)ccn1[C@@H]1CC[C@@H](CO)O1`, the EC50 in the data set on Human alphaherpesvirus 1 [1] was over 177 µM; in data set [3], over 50 µM; in the data set on Human alphaherpesvirus 2 it was over 177 µM; with Human alphaherpesvirus 1 [4], 177 µM; in data set [5], over 50 µM. In addition, in data set [2], the MCC was over 900 µM. Besides, the CC50 with CCRF-CEM is 101 µM.
On to `Cc1c(OCc2ccccc2)c(=O)ccn1[C@H]1CC[C@@H](CO)O1`, for which the EC50 with Human alphaherpesvirus 1 [1] was over 200 µM; in data set [3] it was over 150 µM; in the data set with Human alphaherpesvirus 2 it was over 200 µM; with Human alphaherpesvirus 1 [4] it was over 200 µM; in data set [5] it was over 150 µM. In addition, in data set [2], the MCC is over 900 µM. Moreover, in the data set on CCRF-CEM, the CC50 was over 150 µM.
As to `Cc1c(O)c(=O)ccn1[C@@H]1CS[C@@H](CO)O1` (racemic), the EC50 in the data set with Human alphaherpesvirus 1 [1] was 95 µM; in data set [3], over 80 µM; in the data set on Human alphaherpesvirus 2, 90 µM; in the data set with Human alphaherpesvirus 1 [4], 40 µM; in data set [5], over 80 µM. Further, in data set [2], the MCC is over 400 µM. The same compound gave a CC50 in the data set on CCRF-CEM of 188 µM.
`Cc1c(O)c(=O)ccn1[C@H]1CS[C@@H](CO)O1` (racemic): the EC50 was 80 µM in the data set with Human alphaherpesvirus 1 [1]; over 80 µM in data set [3]; 81 µM in the data set on Human alphaherpesvirus 2; 32 µM in the data set with Human alphaherpesvirus 1 [4]; over 80 µM in data set [5]. Moreover, in data set [2], the MCC is over 400 µM. In the data set on CCRF-CEM, this compound came in with a CC50 of 188 µM.
Consider `Nc1nc2c(ncn2COCCO)c(=O)[nH]1` [ACYCLOVIR], for which the EC50 with Human alphaherpesvirus 1 [1] is 86.6 µM; in data set [3], over 50 µM; with Human alphaherpesvirus 2, 1.76 µM; in the data set on Human alphaherpesvirus 1 [4] it was 1.12 µM; in data set [5], over 50 µM. Moreover, in data set [2], the MCC was over 1700 µM.
`Nc1ccn(C[C@@H](CO)OCP(=O)(O)O)c(=O)n1` [CIDOFOVIR]: in data set [2], the MCC was over 350 µM. The EC50 in data set [3] was over 10 µM; in the data set with Human alphaherpesvirus 1 [4] it was 0.57 µM; in data set [5], over 10 µM.
Consider `Nc1nc2c(ncn2COC(CO)CO)c(=O)[nH]1` [GANCICLOVIR], for which the EC50 was over 50 µM in data set [3], 0.06 µM in the data set on Human alphaherpesvirus 2 and over 50 µM in data set [5].
Consider `Cc1cn([C@H]2C[C@H](N=[N+]=[N-])[C@@H](CO)O2)c(=O)[nH]c1=O` [ZIDOVUDINE], for which the EC50 in data set [3] and in data set [5] was 0.0055 µM in each case. Further, the CC50 with CCRF-CEM was over 100 µM.
